The supplement of paper PMC10307832

Columns and labels:
Experiment in all cases: relative viability (nuclei count vs DMSO), 5 days (fraction); higher = more cells survive
[1] = test system: BEN
How it was run: (§1)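 Cells from lung cancer lines were seeded into 1536-well plates and, one day later, dosed by pin tool. Treatments were either a single drug or a fixed dose of an anchor drug with five library-drug doses (not always all listed) in √10 steps. After 5 days, nuclei were stained in a one-step fixation (final 0.05% Triton X-100, 1% formaldehyde, 1 ug/ml Hoechst) and counted on 4× images, and relative viability is the treated-to-vehicle nuclei ratio, as the median of duplicate plates.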

[2] = test system: NCI-H3122
How it was run: as §1

[3] = test system: NCI-H2023
How it was run: as §1

[4] = test system: CAL-12T
How it was run: as §1

[5] = test system: HCC-44
How it was run: as §1

[6] = test system: NCI-H647
How it was run: as §1

[7] = test system: SK-LU-1
How it was run: as §1

[8] = test system: NCI-H322M
How it was run: as §1

[9] = test system: NCI-H2087
How it was run: as §1

[10] = test system: NCI-H1355
How it was run: as §1

[11] = test system: NCI-H2405
How it was run: as §1

[12] = test system: NCI-H2228
How it was run: as §1

[13] = test system: LCLC-103H
How it was run: as §1

[14] = test system: NCI-H1395
How it was run: as §1

[15] = test system: LXF-289
How it was run: as §1

[16] = test system: 201T
How it was run: as §1

[17] = test system: LCLC-97TM1
How it was run: as §1

[18] = test system: HOP-62
How it was run: as §1

[19] = test system: NCI-H1437
How it was run: as §1

[20] = test system: RERF-LC-KJ
How it was run: as §1

[21] = test system: NCI-H727
How it was run: as §1

[22] = test system: NCI-H1650
How it was run: as §1

[23] = test system: HCC-827
How it was run: as §1

[24] = test system: NCI-H1793
How it was run: as §1

## COc1cc(N2CCC(C(N)=O)CC2)ccc1Nc1nc(N)c(Cl)c(Nc2ccccc2S(=O)(=O)C(C)C)n1 [HG-5-88-01] + Cc1cc(Nc2cc(N3CCN(C)CC3)nc(Sc3ccc(NC(=O)C4CC4)cc3)n2)n[nH]1 [Tozasertib] (partner 0.1 µM)
[1]; first compound 0.04 µM
  relative viability: 0.554
[1]; first compound 0.1265 µM
  relative viability: 0.482
[1]; first compound 0.4 µM
  relative viability: 0.509
[1]; first compound 1.265 µM
  relative viability: 0.484
[1]; first compound 4 µM
  relative viability: 0.531
[2]; first compound 0.04 µM
  relative viability: 0.221
[2]; first compound 0.1265 µM
  relative viability: 0.146
[2]; first compound 0.4 µM
  relative viability: 0.08
[2]; first compound 1.265 µM
  relative viability: 0.112
[2]; first compound 4 µM
  relative viability: 0.0832
[3]; first compound 0.04 µM
  relative viability: 0.35
[3]; first compound 0.1265 µM
  relative viability: 0.362
[3]; first compound 0.4 µM
  relative viability: 0.262
[3]; first compound 1.265 µM
  relative viability: 0.108
[3]; first compound 4 µM
  relative viability: 0.107
[4]; first compound 0.04 µM
  relative viability: 0.274
[4]; first compound 0.1265 µM
  relative viability: 0.359
[4]; first compound 0.4 µM
  relative viability: 0.289
[4]; first compound 1.265 µM
  relative viability: 0.199
[4]; first compound 4 µM
  relative viability: 0.243
[5]; first compound 0.04 µM
  relative viability: 1.1
[5]; first compound 0.1265 µM
  relative viability: 0.928
[5]; first compound 0.4 µM
  relative viability: 0.745
[5]; first compound 1.265 µM
  relative viability: 0.328
[5]; first compound 4 µM
  relative viability: 0.14
[6]; first compound 0.04 µM
  relative viability: 0.236
[6]; first compound 0.1265 µM
  relative viability: 0.403
[6]; first compound 0.4 µM
  relative viability: 0.309
[6]; first compound 1.265 µM
  relative viability: 0.203
[6]; first compound 4 µM
  relative viability: 0.216
[7]; first compound 0.04 µM
  relative viability: 0.337
[7]; first compound 0.1265 µM
  relative viability: 0.311
[7]; first compound 0.4 µM
  relative viability: 0.298
[7]; first compound 1.265 µM
  relative viability: 0.228
[7]; first compound 4 µM
  relative viability: 0.189
[8]; first compound 0.04 µM
  relative viability: 0.456
[8]; first compound 0.1265 µM
  relative viability: 0.443
[8]; first compound 0.4 µM
  relative viability: 0.387
[8]; first compound 4 µM
  relative viability: 0.38
[9]; first compound 0.04 µM
  relative viability: 0.266
[9]; first compound 0.1265 µM
  relative viability: 0.203
[9]; first compound 0.4 µM
  relative viability: 0.262
[9]; first compound 1.265 µM
  relative viability: 0.22
[9]; first compound 4 µM
  relative viability: 0.14
[10]; first compound 0.04 µM
  relative viability: 0.601
[10]; first compound 0.1265 µM
  relative viability: 0.545
[10]; first compound 0.4 µM
  relative viability: 0.493
[10]; first compound 1.265 µM
  relative viability: 0.454
[10]; first compound 4 µM
  relative viability: 0.342
[11]; first compound 0.04 µM
  relative viability: 0.765
[11]; first compound 0.1265 µM
  relative viability: 0.704
[11]; first compound 0.4 µM
  relative viability: 0.659
[11]; first compound 1.265 µM
  relative viability: 0.395
[11]; first compound 4 µM
  relative viability: 0.416
[12]; first compound 0.04 µM
  relative viability: 0.259
[12]; first compound 0.1265 µM
  relative viability: 0.13
[12]; first compound 0.4 µM
  relative viability: 0.159
[12]; first compound 1.265 µM
  relative viability: 0.111
[12]; first compound 4 µM
  relative viability: 0.133
[13]; first compound 0.04 µM
  relative viability: 0.483
[13]; first compound 0.1265 µM
  relative viability: 0.511
[13]; first compound 0.4 µM
  relative viability: 0.386
[13]; first compound 1.265 µM
  relative viability: 0.611
[13]; first compound 4 µM
  relative viability: 0.345
[14]; first compound 0.04 µM
  relative viability: 0.79
[14]; first compound 0.1265 µM
  relative viability: 0.692
[14]; first compound 0.4 µM
  relative viability: 0.859
[14]; first compound 1.265 µM
  relative viability: 0.716
[14]; first compound 4 µM
  relative viability: 0.65
[15]; first compound 0.04 µM
  relative viability: 0.156
[15]; first compound 0.1265 µM
  relative viability: 0.179
[15]; first compound 0.4 µM
  relative viability: 0.185
[15]; first compound 1.265 µM
  relative viability: 0.196
[15]; first compound 4 µM
  relative viability: 0.0786
[16]; first compound 0.04 µM
  relative viability: 0.963
[16]; first compound 0.1265 µM
  relative viability: 0.903
[16]; first compound 0.4 µM
  relative viability: 0.939
[16]; first compound 1.265 µM
  relative viability: 0.871
[16]; first compound 4 µM
  relative viability: 0.911
[17]; first compound 0.04 µM
  relative viability: 0.215
[17]; first compound 0.1265 µM
  relative viability: 0.205
[17]; first compound 0.4 µM
  relative viability: 0.226
[17]; first compound 1.265 µM
  relative viability: 0.148
[17]; first compound 4 µM
  relative viability: 0.0909
[18]; first compound 0.04 µM
  relative viability: 0.357
[18]; first compound 0.1265 µM
  relative viability: 0.359
[18]; first compound 0.4 µM
  relative viability: 0.307
[18]; first compound 1.265 µM
  relative viability: 0.327
[18]; first compound 4 µM
  relative viability: 0.334
[19]; first compound 0.04 µM
  relative viability: 0.409
[19]; first compound 0.1265 µM
  relative viability: 0.398
[19]; first compound 0.4 µM
  relative viability: 0.356
[19]; first compound 1.265 µM
  relative viability: 0.301
[19]; first compound 4 µM
  relative viability: 0.316
[20]; first compound 0.04 µM
  relative viability: 0.58
[20]; first compound 0.1265 µM
  relative viability: 0.509
[20]; first compound 0.4 µM
  relative viability: 0.436
[20]; first compound 1.265 µM
  relative viability: 0.373
[20]; first compound 4 µM
  relative viability: 0.174
[21]; first compound 0.04 µM
  relative viability: 0.594
[21]; first compound 0.1265 µM
  relative viability: 0.665
[21]; first compound 0.4 µM
  relative viability: 0.582
[21]; first compound 1.265 µM
  relative viability: 0.429
[21]; first compound 4 µM
  relative viability: 0.429
[22]; first compound 0.04 µM
  relative viability: 0.428
[22]; first compound 0.1265 µM
  relative viability: 0.396
[22]; first compound 0.4 µM
  relative viability: 0.346
[22]; first compound 1.265 µM
  relative viability: 0.174
[22]; first compound 4 µM
  relative viability: 0.227
[23]; first compound 0.04 µM
  relative viability: 0.475
[23]; first compound 0.1265 µM
  relative viability: 0.439
[23]; first compound 0.4 µM
  relative viability: 0.401
[23]; first compound 1.265 µM
  relative viability: 0.346
[23]; first compound 4 µM
  relative viability: 0.263
[24]; first compound 0.1265 µM
  relative viability: 0.313
[24]; first compound 0.4 µM
  relative viability: 0.293
[24]; first compound 4 µM
  relative viability: 0.216
